Measurements from patent USRE42152E1, “Aromatic-linked polyamine macrocyclic compounds with anti-HIV activity” (Genzyme Corporation, priority 1992, dated 2011).
In brackets after ≈: the same amount, converted by molar mass. Read-outs that look alike come from different tables or passages of the source.

Experiments:
Type in all cases: cell-based
MT-4 cells = assay: Cytotoxicity by MTT method in MT-4 cells
HIV-1 (HTLV-IIIB) = assay: microbe, parasite or virus in culture; settings: for IC50: Human immunodeficiency virus 1, IIIB, MT4, 120 h, read-out: IC50 HIV-1 (IIIB)
HIV-2 (LAV-2 ROD) = assay: MTT anti-viral screen, MT-4 cells challenged with HIV-2; settings: for IC50: Human immunodeficiency virus 2, MT4, 120 h, read-out: IC50 HIV-2 (ROD)
[1] = Cytotoxicity by MTT method in MT-4 cells
[2] = tested on: HIV uncoating (or fusion); assay: Sensitivity of viral RNA from freshly infected MT4 cells to RNase degradation (uncoating); settings: radiolabelled viral particles, RNA harvested 4 hours after infection
From the text: It was reasoned that if tincoating (fusion) was hampered, the viral capsid (or envelope) proteins would remain associated with the viral RNA genome and thus the RNA should be protected against RNase attack.

HIV-1 strain IIIb = assay: Time-of-addition experiment, MT4 cells infected with HIV-1 IIIb, p24 antigen; settings: HIV-1 IIIb at high multiplicity, p24 at 29 hours after infection
Method: To pinpoint the stage at which the compounds interact with the HIV replicative cycle, a time-of-addition experiment was carried out on MT4 cells infected with HIV-1 strain IIIb at high virus multiplicity to ensure that the virus replicative steps would be synchronised in the whole cell populations. Test compounds wife added 1, 2, 3, . . . 22, 23, 24 hours after infection, and vital p24 antigen production determined 29 hours after infection.
Depending on the stage at which compounds interact and the need for intracellular metabolism, addition of the compounds could be delayed for n hours without loss of activity.

[3] = MT-4 cells, 5 days, MTT, HIV-1 part of table
[4] = MT-4 cells, 5 days, MTT, HIV-2 part of table
[5] = MT-4 cells, 100 CCID50, 5 days, MTT
[6] = human, MT-4 cells, 5 days, MTT; HIV-1 part of table; read-out: CC50 (HIV-1 (IIIB))
[7] = human, MT-4 cells, 5 days, MTT; HIV-2 part of table; read-out: CC50 (HIV-2 (ROD))
[8] = human; MT-4 cells, 5 days, MTT; HIV-1 part of table; read-out: CC50 (HIV-1 (IIIB))

1,1′-[1,4-Phenylene-bis-(methylene)]-bis-1,4,8,11-tetraazacyclotetradecane copper diacetate hexahydrate [Compound G]
CC50 (HIV-1 (IIIB)) (MT-4 cells; [3]): >200 µg/mL
CC50 (HIV-2 (ROD)) (MT-4 cells; [4]): >200 µg/mL
IC50 HIV-1 (IIIB) (HIV-1 (HTLV-IIIB); [5]): 0.018 µg/mL
IC50 HIV-2 (ROD) (HIV-2 (LAV-2 ROD); [5]): 0.027 µg/mL

1,1′-[1,4-Phenylene-bis-(methylene)]-bis-1,4,8,11-tetraazacyclotetradecane zinc dichloride monohydrate [Compound F]
CC50 (HIV-1 (IIIB)) (MT-4 cells; [3]): >200 µg/mL
CC50 (HIV-2 (ROD)) (MT-4 cells; [4]): >200 µg/mL
IC50 HIV-1 (IIIB) (HIV-1 (HTLV-IIIB); [5]): 0.0026 µg/mL
IC50 HIV-2 (ROD) (HIV-2 (LAV-2 ROD); [5]): 0.0019 µg/mL

c1cc(CN2CCCNCCNCCCNCC2)cc(CN2CCCNCCNCCCNCC2)c1 [A, 1,1′-[1,3-phenylenebis(methylene)]bis-1,4,8,11-tetraazacyclotetradecane]
CC50 at 5 days [1, 6]: > 500 µg/mL
CC50 at 5 days [1, 7]: > 500 µg/mL
IC50 (HIV-1 (HTLV-IIIB); [5]): 0.03 µg/mL (≈ 0.0597 µM)
IC50 (HIV-2 (LAV-2 ROD); [5]): < 0.01 µg/mL

O=[N+]([O-])c1cc(CN2CCCNCCNCCCNCC2)cc(CN2CCCNCCNCCCNCC2)c1 [Compound C, 1,1′-[5-nitro-1,3-phenylenebis-(methylene)]-bis-1,4,8,11-tetraazacyclotetradecane]
CC50 at 5 days [1, 6]: 55 µg/mL (≈ 100 µM)
CC50 at 5 days [1, 7]: 55 µg/mL (≈ 100 µM)
IC50 (HIV-1 (HTLV-IIIB); [5]): 0.05 µg/mL (≈ 0.0913 µM)
IC50 (HIV-2 (LAV-2 ROD); [5]): 0.07 µg/mL (≈ 0.128 µM)

Br.Br.Br.Br.Br.Br.Br.Br.O.O.O.O.c1cc(CN2CCCNCCNCCCNCC2)cc(-c2cccc(CN3CCCNCCNCCCNCC3)c2)c1 [Compound J, 1,1′-[3,3′-Biphenylene-bis-(methylene)]-bis-1,4,8,11-tetraazacyclotetradecane octahydrobromide tetrahydrate]
CC50 (HIV-1 (IIIB)) (MT-4 cells): >200 µg/mL
CC50 (HIV-2 (ROD)) (MT-4 cells): >200 µg/mL
IC50 HIV-1 (IIIB) (HIV-1 (HTLV-IIIB); [5]): 0.16 µg/mL
IC50 HIV-2 (ROD) (HIV-2 (LAV-2 ROD); [5]): 0.22 µg/mL

Br.Br.Br.Br.Br.Br.Br.Br.Br.Br.O.O.O.O.O.c1cc(CN2CCCNCCNCCCNCC2)cc(-c2cc(CN3CCCNCCNCCCNCC3)ccn2)n1 [Compound K, 1,1′-[4,4′-(2,2′-Bipyridine)-bis-(methyl)]-bis-1,4,8,11-tetraazacyclotetradecane decahydrobromide pentahydrate]
CC50 (HIV-1 (IIIB)) (MT-4 cells; [3]): 117 µg/mL
CC50 (HIV-2 (ROD)) (MT-4 cells; [4]): 117 µg/mL
IC50 HIV-1 (IIIB) (HIV-1 (HTLV-IIIB); [5]): 0.38 µg/mL
IC50 HIV-2 (ROD) (HIV-2 (LAV-2 ROD); [5]): 0.35 µg/mL

Br.Br.Br.Br.Br.Br.Br.Br.Br.Br.O.O.O.c1cc2ccc3ccc(CN4CCCNCCNCCCNCC4)nc3c2nc1CN1CCCNCCNCCCNCC1 [Compound L, 1,1′-[2,9-(1,10-Phenanthroline)-bis-(methylene)]-bis-1,4,8,11-tetraazacyclotetradecane decahydrobromide trihydrate]
CC50 (HIV-1 (IIIB)) (MT-4 cells): >200 µg/mL
CC50 (HIV-2 (ROD)) (MT-4 cells): >200 µg/mL
IC50 HIV-1 (IIIB) (HIV-1 (HTLV-IIIB); [5]): 0.29 µg/mL
IC50 HIV-2 (ROD) (HIV-2 (LAV-2 ROD); [5]): 0.32 µg/mL

Br.Br.Br.Br.Br.Br.Br.Br.O.O.c1cc(CN2CCCNCCNCCNCCC2)ccc1CN1CCCNCCNCCNCCC1 [Compound M, 11,11′-[1,4-Phenylene-bis-(methylene)]-bis-1,4,7,11-tetraazacyclotetradecane octahydrobromide dihydrate]
CC50 (HIV-2 (ROD)) (MT-4 cells; [4]): >500 µg/mL
CC50 at 5 days [1, 8]: > 500 µg/mL
IC50 (HIV-1 (HTLV-IIIB)): 0.03 µg/mL
IC50 (HIV-2 (LAV-2 ROD)): 0.07 µg/mL

Br.Br.Br.Br.Br.Br.Br.Br.O.O.O.O.O.O.c1cc(CN2CCCNCCNCCCNCC2)ccc1CN1CCCNCCNCCNCCC1 [Compound N, 1,11′-[1,4-Phenylene-bis-(methylene)]-1,4,8,11-tetraazacyclotetradecane-1,4,7,11-tetraazacydotetradecane octahydrobromide hexahydrate]
CC50 (HIV-1 (IIIB)) (MT-4 cells): >500 µg/mL
CC50 (HIV-2 (ROD)) (MT-4 cells): >500 µg/mL
IC50 HIV-1 (IIIB) (HIV-1 (HTLV-IIIB); [5]): 0.01 µg/mL
IC50 HIV-2 (ROD) (HIV-2 (LAV-2 ROD); [5]): 0.07 µg/mL

Br.Br.Br.Br.Br.Br.Br.Br.O.O.O.O.c1cc(CN2CCCNCCNCCCNCC2)nc(CN2CCCNCCNCCCNCC2)c1 [Compound O, 1,1′-[2,6-Pyridinebis-(methylene)]-bis-1,4,8,11-tetraazacyclotetradecane octahydrobromide tetrahydrate]
CC50 (HIV-1 (IIIB)) (MT-4 cells): >500 µg/mL
CC50 (HIV-2 (ROD)) (MT-4 cells): >500 µg/mL
IC50 HIV-1 (IIIB) (HIV-1 (HTLV-IIIB); [5]): 0.03 µg/mL
IC50 HIV-2 (ROD) (HIV-2 (LAV-2 ROD); [5]): 0.08 µg/mL

Br.Br.Br.Br.Br.Br.Br.Br.Br.O.O.c1ncc(CN2CCCNCCNCCCNCC2)cc1CN1CCCNCCNCCCNCC1 [Compound P, 1,1′[3,5-Pyridinebis-(methylene)]-bis-1,4,8,11-tetraazacyclotetradecane nonahydrobromide dihydrate]
CC50 (HIV-1 (IIIB)) (MT-4 cells): >500 µg/mL
CC50 (HIV-2 (ROD)) (MT-4 cells): >500 µg/mL
IC50 HIV-1 (IIIB) (HIV-1 (HTLV-IIIB); [5]): 0.04 µg/mL
IC50 HIV-2 (ROD) (HIV-2 (LAV-2 ROD); [5]): 0.09 µg/mL

Br.Br.Br.Br.Br.Br.c1cc(CN2CCNCCNCCNCC2)cc(CN2CCNCCNCCNCC2)c1 [Compound Q, 1,1′-[1,3-Phenylenebis-(methylene)]-bis-1,4,7,10-tetraazacyclododecane hexahydrobromide]
CC50 at 5 days [1, 8]: 19 µg/mL
IC50 (HIV-1 (HTLV-IIIB)): 0.07 µg/mL
IC50 (HIV-2 (LAV-2 ROD)): 0.5 µg/mL

CC(C)=CCN1Cc2cc(Cl)cc3[nH]c(=S)n(c23)C[C@@H]1C [Compound R82913]
resistance of viral RNA to degradation by RNase [2]: did not show this increased resistance
n, hours addition could be delayed after infection without loss of activity (HIV-1 strain IIIb): 6 h

Br.Br.Br.Br.Br.Br.c1cc(CN2CCNCCNCCNCC2)ccc1CN1CCNCCNCCNCC1 [Compound R, 1,1′-[1,4-Phenylenebis-(methylene)]-bis-1,4,7,10-tetraazacyclododecane hexahydrobromide]
CC50 at 5 days [1, 8]: 51 µg/mL
IC50 (HIV-1 (HTLV-IIIB)): 0.3 µg/mL
IC50 (HIV-2 (LAV-2 ROD)): 2.2 µg/mL

Br.Br.Br.Br.Br.Br.Br.Br.c1cc(CN2CCCNCCNCCCNCC2)sc1CN1CCCNCCNCCCNCC1 [Compound T, 1,1′-[2,5-Thophenebis-(methylene)]-bis-1,4,8,11-tetraazacyclotetradecane octahydrobromide]
CC50 (HIV-1 (IIIB)) (MT-4 cells): >500 µg/mL
CC50 (HIV-2 (ROD)) (MT-4 cells): >500 µg/mL
IC50 HIV-1 (IIIB) (HIV-1 (HTLV-IIIB); [5]): 0.01 µg/mL
IC50 HIV-2 (ROD) (HIV-2 (LAV-2 ROD); [5]): 0.02 µg/mL

O=c1[nH]cnc2c1ncn2[C@H]1CC[C@@H](CO)O1 [DDI]
resistance of viral RNA to degradation by RNase [2]: did not show this increased resistance

c1ccc2c(CN3CCCNCCNCCCNCC3)ccc(CN3CCCNCCNCCCNCC3)c2c1 [E, 1,1′-[1,4-naphthylenebis(methylene)]bis-1,4,8,11-tetraazacyclotetradecane]
CC50 (HIV-1 (IIIB)) (MT-4 cells): 71 µg/mL (≈ 128 µM)
CC50 (HIV-2 (ROD)) (MT-4 cells): 71 µg/mL (≈ 128 µM)
IC50 HIV-1 (IIIB) (HIV-1 (HTLV-IIIB); [5]): 0.07 µg/mL (≈ 0.127 µM)
IC50 HIV-2 (ROD) (HIV-2 (LAV-2 ROD); [5]): 0.05 µg/mL (≈ 0.0904 µM)

Cc1cc(CN2CCCNCCNCCCNCC2)c(C)cc1CN1CCCNCCNCCCNCC1 [W, 1,1′-[2,5-dimethyl-1,4-phenylenebis-(methylene)]-bis-1,4,8,11-tetraazacyclotetradecane]
CC50 at 5 days [1, 6]: > 250 µg/mL
CC50 at 5 days [1, 7]: > 250 µg/mL
IC50 (HIV-1 (HTLV-IIIB); [5]): 0.0076 µg/mL (≈ 0.0143 µM)
IC50 (HIV-2 (LAV-2 ROD); [5]): 0.0013 µg/mL (≈ 0.00245 µM)

Clc1cc(CN2CCCNCCNCCCNCC2)c(Cl)cc1CN1CCCNCCNCCCNCC1 [X, 1,1′-[2,5-dichloro-1,4-phenylenebis-(methylene)]-bis-1,4,8,11-tetraazacyclotetradecane]
CC50 at 5 days [1, 6]: 71.9 µg/mL (≈ 126 µM)
CC50 at 5 days [1, 7]: 72.7 µg/mL (≈ 127 µM)
IC50 (HIV-1 (HTLV-IIIB); [5]): 0.0131 µg/mL (≈ 0.0229 µM)
IC50 (HIV-2 (LAV-2 ROD); [5]): 0.003 µg/mL (≈ 0.00525 µM)

Brc1cc(CN2CCCNCCNCCCNCC2)ccc1CN1CCCNCCNCCCNCC1 [Y, 1,1′-[2-bromo-1,4-phenylenebis-(methylene)]-bis-1,4,8,11-tetraazacyclotetradecane]
CC50 at 5 days [1, 6]: > 250 µg/mL
CC50 at 5 days [1, 7]: > 250 µg/mL
IC50 (HIV-1 (HTLV-IIIB); [5]): 0.0075 µg/mL (≈ 0.0129 µM)
IC50 (HIV-2 (LAV-2 ROD); [5]): 0.0043 µg/mL (≈ 0.00739 µM)

c1ccc(-c2cc(CN3CCCNCCNCCCNCC3)cc(CN3CCCNCCNCCCNCC3)n2)cc1 [Z, 1,1′-[6-phenyl-2,4-pyridinebis-(methylene)]-bis-1,4,8,11-tetraazacyclotetradecane]
CC50 (HIV-1 (IIIB)) (MT-4 cells): >250 µg/mL
CC50 (HIV-2 (ROD)) (MT-4 cells): >250 µg/mL
IC50 HIV-1 (IIIB) (HIV-1 (HTLV-IIIB); [5]): 0.0489 µg/mL (≈ 0.0843 µM)
IC50 HIV-2 (ROD) (HIV-2 (LAV-2 ROD); [5]): 0.0246 µg/mL (≈ 0.0424 µM)
